Laboratory results taken from patent US4496566A, “Naphthyridine derivatives” (Dainippon Pharmaceutical Co., Ltd., priority 1980, dated 1985).
Values after ≈ are worked out from the molar mass of the structure shown.

Tests used:
[1] = test system: Staphylococcus aureus No. 50774; experiment: MIC by agar dilution method; format: cell-based; settings: Gram-positive bacteria, read-out: minimum inhibitory concentration (MIC)
[2] = test system: Streptococcus faecalis P-2473; experiment: MIC by agar dilution method; format: cell-based; settings: Enterococcus faecalis, P2473, read-out: minimum inhibitory concentration (MIC)
[3] = test system: Streptococcus pyogenes A65; experiment: MIC by agar dilution method; format: cell-based; settings: read-out: minimum inhibitory concentration (MIC)
[4] = test system: Corynebacterium pyogenes C-21; experiment: MIC by agar dilution method; format: cell-based; settings: Trueperella pyogenes, C21, read-out: minimum inhibitory concentration (MIC)
[5] = test system: Escherichia coli NIHJ JC-2; experiment: MIC by agar dilution method; format: cell-based; settings: NIHJJC2, read-out: minimum inhibitory concentration (MIC)
Escherichia coli P-5101 [6] = experiment: MIC by agar dilution method; format: cell-based; settings: P5101, read-out: minimum inhibitory concentration (MIC)
Escherichia coli P-140a = experiment: MIC by agar dilution method; format: cell-based; settings: P140A, read-out: minimum inhibitory concentration (MIC)
[7] = test system: Salmonella typhimurium S-9; experiment: MIC by agar dilution method; format: cell-based; settings: Salmonella enterica, read-out: minimum inhibitory concentration (MIC)
[8] = test system: Salmonella enteritidis No. 1891; experiment: MIC by agar dilution method; format: cell-based; settings: Salmonella enterica, read-out: minimum inhibitory concentration (MIC)
[9] = test system: Enterobacter cloacae P-2540; experiment: MIC by agar dilution method; format: cell-based; settings: P2540, read-out: minimum inhibitory concentration (MIC)
[10] = test system: Pseudomonas aeruginosa Tsuchijima; experiment: MIC by agar dilution method; format: cell-based; settings: read-out: minimum inhibitory concentration (MIC)
[11] = test system: Pseudomonas aeruginosa No. 12; experiment: MIC by agar dilution method; format: cell-based; settings: read-out: minimum inhibitory concentration (MIC)
[12] = test system: Klebsiella pneumoniae No. 13; experiment: MIC by agar dilution method; format: cell-based; settings: read-out: minimum inhibitory concentration (MIC)
Protocol: (§1) The minimum inhibitory concentrations (MIC: μg/ml) of the following compounds were measured by the agar dilution method according to the procedure described in Chemotherapy, Vol. 22, No. 16, page 1126 (1974).

Proteus mirabilis P-2381 = experiment: MIC by agar dilution method; format: cell-based; settings: P2381, read-out: minimum inhibitory concentration (MIC)
Protocol: as §1

Proteus morganii Kono = experiment: MIC by agar dilution method; format: cell-based; settings: Morganella morganii, read-out: minimum inhibitory concentration (MIC)
Protocol: as §1

[13] = test system: Serratia marcescens IFO 3736; experiment: MIC by agar dilution method; format: cell-based; settings: IFO3736, read-out: minimum inhibitory concentration (MIC)
Protocol: as §1

Shigella flexneri 2a = experiment: MIC by agar dilution method; format: cell-based; settings: read-out: minimum inhibitory concentration (MIC)
Protocol: as §1

[14] = test system: Shigella flexneri 4a P-330; experiment: MIC by agar dilution method; format: cell-based; settings: 4AP330, read-out: minimum inhibitory concentration (MIC)
Protocol: as §1

[15] = test system: Staphylococcus aureus 209P JC-1; experiment: MIC by agar dilution method; format: cell-based; settings: Gram-positive bacteria, read-out: minimum inhibitory concentration (MIC)
Protocol: as §1

[16] = test system: Staphylococcus aureus No. 50774; experiment: In vivo therapeutic efficacy against systemic infections in mice; settings: NO.50774, 336 h, po, twice, about 5 minutes and 6 hours after intravenous infection, male ddY mice, observed 14 days, read-out: median effective dose (ED50)
Text: (§2) Compound 1 of this invention obtained by the procedure described in Example 1 and compounds A and B were each suspended in a 0.2% aqueous solution of sodium carboxymethylcellulose. Each of the solutions was orally administered to mice infected with each of the test organisms under the conditions described below, and the median effective doses (ED50; mg/kg) obtained are shown in Table II. Male mice (ddY) weighing about 20 g (1) Staphylococcus aureus No. 50774: Intravenous infection with about 5×10^8 cells per mouse suspended in saline. […] Exp. Path. Pharm., 162, 480 (1931)].

[17] = test system: Streptococcus pyogenes A65; experiment: as above; settings: po, twice, about 5 minutes and 6 hours after intraperitoneal infection, male ddY mice, read-out: median effective dose (ED50)
Text: as §2, with “(2) Streptococcus pyogenes […] Intraperitoneal” for “(1) Staphylococcus aureus No. 50774: Intravenous”, “3×10^7” for “5×10^8”, “brain-heart infusion broth.” for “saline.”

Escherichia coli P-5101 [18] = experiment: as above; settings: P5101, 168 h, po, twice, about 5 minutes and 6 hours after intraperitoneal infection, male ddY mice, observed 7 days, read-out: median effective dose (ED50)
Text: as §2, with “(3) Escherichia coli P-5101: Intraperitoneal” for “(1) Staphylococcus aureus No. 50774: Intravenous”, “9×10^6” for “5×10^8”, “trypto-soy broth with 4% mucin.” for “saline.”

[19] = test system: Pseudomonas aeruginosa No. 12; experiment: as above; settings: po, twice, about 5 minutes and 6 hours after intraperitoneal infection, male ddY mice, read-out: median effective dose (ED50)
Text: as §2, with “(4) Pseudomonas aeruginosa” for “(1) Staphylococcus aureus”, “12: Intraperitoneal” for “50774: Intravenous”, “4×10^3” for “5×10^8”, “trypto-soy broth with 4% mucin.” for “saline.”

[20] = Acute oral toxicity in mice; settings: mouse, in vivo, male ddY mice, deaths counted after 7 days, Behrens-Kaerber method, read-out: median lethal dose (LD50)
Protocol: A suspension containing each of compound 1 of the invention and compound A in various concentrations was orally given to male mice (ddY) at a volume of 0.1 ml per 10 g of body weight.

## CN1CCN(c2nc3c(cc2F)c(=O)c(C(=O)O)cn3CCF)CC1 [Compound 1, 6-Fluoro-1-(2-fluoroethyl)-1,4-dihydro-7-(4-methyl-1-piperazinyl)-4-oxo-1,8-naphthyridine-3-carboxylic acid]
[1]
  MIC: 0.39 µg/mL (≈ 1.11 µM)
[2]
  MIC: 12.5 µg/mL (≈ 35.5 µM)
[3]
  MIC: 12.5 µg/mL (≈ 35.5 µM)
[4]
  MIC: 6.25 µg/mL (≈ 17.7 µM)
[5]
  MIC: 0.2 µg/mL (≈ 0.568 µM)
Escherichia coli P-5101 [6]
  MIC: 0.1 µg/mL (≈ 0.284 µM)
Escherichia coli P-140a
  MIC: 0.1 µg/mL (≈ 0.284 µM)
[7]
  MIC: 0.2 µg/mL (≈ 0.568 µM)
[8]
  MIC: 0.1 µg/mL (≈ 0.284 µM)
[9]
  MIC: 0.2 µg/mL (≈ 0.568 µM)
[10]
  MIC: 3.13 µg/mL (≈ 8.88 µM)
[11]
  MIC: 1.56 µg/mL (≈ 4.43 µM)
[12]
  MIC: 0.39 µg/mL (≈ 1.11 µM)
Proteus mirabilis P-2381
  MIC: 0.78 µg/mL (≈ 2.21 µM)
Proteus morganii Kono
  MIC: 0.39 µg/mL (≈ 1.11 µM)
[13]
  MIC: 1.56 µg/mL (≈ 4.43 µM)
Shigella flexneri 2a
  MIC: 0.39 µg/mL (≈ 1.11 µM)
[14]
  MIC: 0.1 µg/mL (≈ 0.284 µM)
[15]
  MIC: 0.78 µg/mL (≈ 2.21 µM)
[16]
  ED50: 1.4 mg/kg
[17]
  ED50: 14.9 mg/kg
Escherichia coli P-5101 [18]
  ED50: 0.52 mg/kg
[19]
  ED50: 4.2 mg/kg
[20]
  LD50 at 168 h: > 1800 mg/kg

## CCn1cc(C(=O)O)c(=O)c2cc(F)c(N3CCN(C)CC3)nc21 [Compound A, 1-Ethyl-6-fluoro-1,4-dihydro-7-(4-methyl-1-piperazinyl)-4-oxo-1,8-naphthyridine-3-carboxylic acid]
[3]
  MIC: 6.25 µg/mL (≈ 18.7 µM)
[4]
  MIC: 6.25 µg/mL (≈ 18.7 µM)
[5]
  MIC: 0.39 µg/mL (≈ 1.17 µM)
Escherichia coli P-140a
  MIC: 0.39 µg/mL (≈ 1.17 µM)
[8]
  MIC: 0.1 µg/mL (≈ 0.299 µM)
Proteus mirabilis P-2381
  MIC: 3.13 µg/mL (≈ 9.36 µM)
Proteus morganii Kono
  MIC: 0.78 µg/mL (≈ 2.33 µM)
[13]
  MIC: 1.56 µg/mL (≈ 4.67 µM)
Shigella flexneri 2a
  MIC: 0.39 µg/mL (≈ 1.17 µM)
[14]
  MIC: 0.78 µg/mL (≈ 2.33 µM)
[17]
  ED50: > 50 mg/kg

## O=C(O)c1cn(CCF)c2nc(N3CCNCC3)c(F)cc2c1=O [Compound B, 6-Fluoro-1-(2-fluoroethyl)-1,4-dihydro-4-oxo-7-(1-piperazinyl)-1,8-naphthyridine-3-carboxylic acid]
[1]
  MIC: 1.56 µg/mL (≈ 4.61 µM)
[2]
  MIC: 12.5 µg/mL (≈ 36.9 µM)
[3]
  MIC: 12.5 µg/mL (≈ 36.9 µM)
[4]
  MIC: 1.56 µg/mL (≈ 4.61 µM)
[5]
  MIC: 0.2 µg/mL (≈ 0.591 µM)
Escherichia coli P-5101 [6]
  MIC: 0.1 µg/mL (≈ 0.296 µM)
Escherichia coli P-140a
  MIC: 0.1 µg/mL (≈ 0.296 µM)
[7]
  MIC: 0.1 µg/mL (≈ 0.296 µM)
[8]
  MIC: 0.1 µg/mL (≈ 0.296 µM)
[9]
  MIC: 0.1 µg/mL (≈ 0.296 µM)
[10]
  MIC: 0.78 µg/mL (≈ 2.31 µM)
[11]
  MIC: 0.78 µg/mL (≈ 2.31 µM)
[12]
  MIC: 0.78 µg/mL (≈ 2.31 µM)
Proteus mirabilis P-2381
  MIC: 0.39 µg/mL (≈ 1.15 µM)
Proteus morganii Kono
  MIC: 0.2 µg/mL (≈ 0.591 µM)
[13]
  MIC: 0.39 µg/mL (≈ 1.15 µM)
Shigella flexneri 2a
  MIC: 0.2 µg/mL (≈ 0.591 µM)
[14]
  MIC: 0.1 µg/mL (≈ 0.296 µM)
[15]
  MIC: 0.39 µg/mL (≈ 1.15 µM)
[16]
  ED50: 11.5 mg/kg
[17]
  ED50: 50 mg/kg
Escherichia coli P-5101 [18]
  ED50: 3 mg/kg
[19]
  ED50: 27.2 mg/kg
